# Results published in patent US20240166693A1, “METHODS AND COMPOUNDS FOR MODULATING MYOTONIC DYSTROPY 1” (Design Therapeutics, Inc., priority 2020, published 2024).
# System: Myotonic Dystrophy 1 affected patient fibroblasts (Coriell GM04602; 1600 CTG repeats)
# Assay: DM1 foci reduction assay (CAG10-Cy3 FISH, average foci per nucleus)
# Type: cell-based
# Conditions: Homo sapiens, Fibroblast, 48 h, read-out: Foci Reduction in Fibroblast EC50, 48 h (nM)
# Protocol: DM1 foci reduction assay methods: Myotonic Dystrophy 1 affected patient fibroblasts (Coriell GM04602; 1600 CTG repeats) and wild type fibroblasts (Coriell GM07492; control line) were cultured separately in Gibco DMEM (1×)+4.5 g/L D-Glucose+L-Glutamine+110 mg/L Sodium Pyruvate, supplemented with 10% FBS and 1× Pen/Strep. Cells were maintained in incubator at 37° C. and 5% CO2 with media refresh every 48-72 hours.
# At 90-95% confluency, both cell lines were harvested using Trypl-E then pelleted at 500×g for 5 minutes and were resuspended in media. DM1 fibroblasts were seeded in Agilent 96 well black plates at a density of 5,000 cells/well in 200 μL media; 8 wells were reserved for control fibroblasts. Plates were returned to incubator for 24 hours at 37° C. and 5% CO2.
# Compounds were diluted from 10 mM stock to 1 mM in DMSO, then diluted once more to 6 μM (2× concentration) in media. Media was removed from all plates and cells were replenished with 100 μL media. Cells were treated in 8-point dose response, 1:3 fold dilution, 3 μM top dose via addition of 100 μL of 6 μM (2× concentration) compound to the 100 μL media with cells. Plates were returned to incubator for 48-hour time-course experiment at 37° C. and 5% CO2.
# Following treatment, compounds were removed, and plates were washed with PBS, then cells were fixed in 75 μL 4% PFA solution for 20 minutes at room temperature. Plates were washed twice with PBS and twice with cold 70% ethanol before permeabilization with 250 μL cold 70% ethanol for 24-72 hours at −20° C.
# After permeabilization, plates were washed once with a 30% formamide and 2×SSC buffer and rehydrated in that buffer for 15 minutes at room temperature. Cells were incubated overnight at 37° C. in 75 μL of a hybridization solution containing 30% formamide, 2×SSC, 25 mg/mL dextran sulfate, 2.5 mg/mL BSA, 0.2 μg/mL Herring sperm DNA, 2 mM vanadyl-ribonucleoside complex, and 5 nM CAG10-Cy3 probe.
# Plates were washed once with 30% formamide in 2×SSC buffer, then twice with the buffer for 30 minutes at 37° C., 300 RPM in an incubating plate shaker. Cells were stained with 75 μL of 2.5 μg/mL DAPI in PBS for 5 minutes at room temperature. Plates were then washed twice with PBS and stored in 250 μL PBS. Plates were sealed with adhesive foil and wiped down with 70% ethanol.
# Cells were imaged on a Cytation5 with a 20× objective sampling from 4 areas of each well. Nuclei were captured under DAPI channel and foci under RFP channel. Plates were analyzed on an average foci per nucleus per well basis.
row,Structure (SMILES),EC50 [nM]
1,CCN(CC)CCCCC(NC(=O)[C@H](CC(C)C)NC(=O)C(C)NC(=O)[C@H](Cc1ccccc1)NC(=O)c1ccc(C(C)(C)C)cc1)C(=O)N[C@@H](CO)C(=O)NCCCN(C)CCCNC(=O)CCNC(=O)c1nc(NC(=O)c2cc(NC(=O)CCNC(=O)c3nc(NC(=O)CCCNC(=O)c4cc(NC(=O)c5nc(NC(=O)CCNC(=O)c6cc(NC(=O)c7nccn7C)cn6C)cn5C)cn4C)cn3C)cn2C)cn1C (stereo in doubt) [Compound 71],> 500
2,CCN(CC)CCCC[C@H](NC(=O)[C@H](CC(C)C)NC(=O)[C@H](C)NC(=O)[C@H](Cc1ccccc1)NC(=O)c1ccc(C(C)(C)C)cc1)C(=O)N[C@@H](CO)C(=O)NCCOCCOCCOCCOCCOCCNC(=O)c1nc(NC(=O)CCNC(=O)c2cc(NC(=O)c3nc(NC(=O)CCNC(=O)c4cc(NC(=O)c5nc(NC(=O)CCNC(=O)c6cccn6C)cn5C)cn4C)cn3C)cn2C)cn1C [Compound 10],> 500
3,CCN(CC)CCCC[C@H](NC(=O)[C@H](CC(C)C)NC(=O)[C@H](C)NC(=O)[C@H](Cc1ccccc1)NC(=O)c1ccc(C(C)(C)C)cc1)C(=O)N[C@@H](CO)C(=O)NCCOCCOCCOCCOCCOCCNC(=O)CCNC(=O)c1nc(NC(=O)c2cc(NC(=O)CCNC(=O)c3nc(NC(=O)CCCNC(=O)c4cc(NC(=O)c5nc(NC(=O)CCNC(=O)c6cc(NC(=O)c7nccn7C)cn6C)cn5C)cn4C)cn3C)cn2C)cn1C [Compound 25],100 to 500
4,CCN(CC)CCCC[C@H](NC(=O)[C@H](CC(C)C)NC(=O)[C@H](C)NC(=O)[C@H](Cc1ccccc1)NC(=O)c1ccc(C(C)(C)C)cc1)C(=O)N[C@@H](CO)C(=O)NCCOCCOCCOCCOCCOCCOCCOCCOCCOCCOCCNC(=O)CCNC(=O)c1nc(NC(=O)c2cc(NC(=O)CCNC(=O)c3nc(NC(=O)CCCNC(=O)c4cc(NC(=O)c5nc(NC(=O)CCNC(=O)c6cc(NC(=O)c7nccn7C)cn6C)cn5C)cn4C)cn3C)cn2C)cn1C [Compound 26],100 to 500
5,CCN(CC)CCCC[C@H](NC(=O)[C@H](CC(C)C)NC(=O)[C@H](C)NC(=O)[C@H](Cc1ccccc1)NC(=O)c1ccc(C(C)(C)C)cc1)C(=O)N[C@@H](CO)C(=O)NCCOCCOCCOCCOCCOCCOCCOCCOCCOCCOCCOCCOCCOCCOCCOCCNC(=O)CCNC(=O)c1nc(NC(=O)c2cc(NC(=O)CCNC(=O)c3nc(NC(=O)CCCNC(=O)c4cc(NC(=O)c5nc(NC(=O)CCNC(=O)c6cc(NC(=O)c7nccn7C)cn6C)cn5C)cn4C)cn3C)cn2C)cn1C [Compound 27],< 100
6,CCN(CC)CCCC[C@H](NC(=O)[C@H](CC(C)C)NC(=O)[C@H](C)NC(=O)[C@H](Cc1ccccc1)NC(=O)c1ccc(C(C)(C)C)cc1)C(=O)N[C@@H](CO)C(=O)NCCOCCOCCOCCOCCOCCNC(=O)c1cc(NC(=O)c2cc(NC(=O)c3nc(NC(=O)c4cc(NC(=O)[C@@H](N)CCNC(=O)c5nc(NC(=O)c6cc(NC(=O)c7cc(NC(=O)c8nccn8C)cn7C)cn6C)cn5C)cn4C)cn3C)cn2C)cn1C [Compound 55],> 500
7,CCN(CC)CCCC[C@H](NC(=O)[C@H](CC(C)C)NC(=O)[C@H](C)NC(=O)[C@H](Cc1ccccc1)NC(=O)c1ccc(C(C)(C)C)cc1)C(=O)N[C@@H](CO)C(=O)NCCOCCOCCOCCOCCOCCNC(=O)c1cc(NC(=O)c2cc(NC(=O)c3nc(NC(=O)c4cc(NC(=O)[C@@H](N)CCNC(=O)c5nc(NC(=O)CCNC(=O)c6cc(NC(=O)c7nccn7C)cn6C)cn5C)cn4C)cn3C)cn2C)cn1C [Compound 56],> 500
8,CCN(CC)CCCC[C@H](NC(=O)[C@H](CC(C)C)NC(=O)[C@H](C)NC(=O)[C@H](Cc1ccccc1)NC(=O)c1ccc(C(C)(C)C)cc1)C(=O)N[C@@H](CO)C(=O)NCCOCCOCCOCCOCCOCCNC(=O)c1cc(NC(=O)c2nc(NC(=O)c3cc(NC(=O)[C@@H](N)CCNC(=O)c4nc(NC(=O)c5cc(NC(=O)c6cc(NC(=O)c7nccn7C)cn6C)cn5C)cn4C)cn3C)cn2C)cn1C [Compound 57],> 500
9,CC(C)C[C@H](NC(=O)[C@H](C)NC(=O)[C@H](Cc1ccccc1)NC(=O)c1ccc(C(C)(C)C)cc1)C(=O)N[C@@H](CCCCN(C)C1CC2CCC1C2)C(=O)N[C@@H](CO)C(=O)NCCOCCOCCOCCOCCOCCNC(=O)c1cc(NC(=O)c2cc(NC(=O)c3nc(NC(=O)c4cc(NC(=O)[C@@H](N)CCNC(=O)c5nc(NC(=O)c6cc(NC(=O)c7cc(NC(=O)c8nccn8C)cn7C)cn6C)cn5C)cn4C)cn3C)cn2C)cn1C (stereo partly shown) [Compound 58],> 500
10,CC(C)C[C@H](NC(=O)[C@H](C)NC(=O)[C@H](Cc1ccccc1)NC(=O)c1ccc(C(C)(C)C)cc1)C(=O)N[C@@H](CCCCN(C)C1CC2CCC1C2)C(=O)N[C@@H](CO)C(=O)NCCOCCOCCOCCOCCOCCNC(=O)CCNC(=O)c1nc(NC(=O)c2cc(NC(=O)CCNC(=O)c3nc(NC(=O)CCCNC(=O)c4cc(NC(=O)c5nc(NC(=O)CCNC(=O)c6cc(NC(=O)c7nccn7C)cn6C)cn5C)cn4C)cn3C)cn2C)cn1C (stereo partly shown) [Compound 59],100 to 500
11,CCN(CC)CCCC[C@H](NC(=O)[C@H](CC(C)C)NC(=O)[C@H](C)NC(=O)[C@H](Cc1ccccc1)NC(=O)c1ccc(C(C)(C)C)cc1)C(=O)N[C@@H](CO)C(=O)NCCOCCOCCNC(=O)CCNC(=O)c1nc(NC(=O)c2cc(NC(=O)CCNC(=O)c3[nH]c(NC(=O)CCCNC(=O)c4cc(NC(=O)c5nc(NC(=O)CCNC(=O)c6cc(NC(=O)c7nccn7C)cn6C)cn5C)cn4C)cc3C)cn2C)cn1C [Compound 64],< 100
12,CCN(CC)CCCC[C@H](NC(C)=O)C(=O)N[C@@H](CO)C(=O)NCCOCCOCCOCCOCCOCCNC(=O)CCNC(=O)c1nc(NC(=O)c2cc(NC(=O)CCCC(=O)c3nc(NC(=O)CCCNC(=O)c4cc(NC(=O)c5nc(NC(=O)CCNC(=O)c6cc(NC(=O)c7nccn7C)cn6C)cn5C)cn4C)cn3C)cn2C)cn1C [Compound 65],> 500

# Same assay, conditions: Homo sapiens, Fibroblast; DM1 fibroblasts, 48 h treatment, 8-point dose response, 3 μM top dose; read-out: Foci Reduction in Fibroblast EC50, 48 h
row,Structure (SMILES),EC50 [nM]
1,Cn1cc(NC(=O)c2nc(NC(=O)CCNC(=O)c3cc(NC(=O)c4nc(NC(=O)CCNC(=O)c5cccn5C)cn4C)cn3C)cn2C)cc1C(=O)NCCC(=O)Nc1cn(C)c(C(=O)NCCOCCOCCOCCOCCOCCOCCOCCOCCOCCOCCN2CCC(C(=O)Nc3ncc(SCc4ncc(C(C)(C)C)o4)s3)CC2)n1 [Compound 2],< 100
2,Cn1cc(NC(=O)c2nc(NC(=O)CCNC(=O)c3cc(NC(=O)c4nccn4C)cn3C)cn2C)cc1C(=O)NCCCC(=O)Nc1cn(C)c(C(=O)NCCC(=O)Nc2cc(C(=O)Nc3cn(C)c(C(=O)NCCC(=O)NCCOCCOCCOCCOCCOCCOCCOCCOCCOCCOCCN4CCC(C(=O)Nc5ncc(SCc6ncc(C(C)(C)C)o6)s5)CC4)n3)n(C)c2)n1 [Compound 17],> 500
3,CC(C)c1cnn2c(NCc3ccc(OCCOCCOCCOCCOCCOCCOCCOCCOCCOCCOCCNC(=O)CCNC(=O)c4nc(NC(=O)c5cc(NC(=O)CCNC(=O)c6nc(NC(=O)CCCNC(=O)c7cc(NC(=O)c8nc(NC(=O)CCNC(=O)c9cc(NC(=O)c%10nccn%10C)cn9C)cn8C)cn7C)cn6C)cn5C)cn4C)cc3-n3cccn3)nc(OC3CCCNC3)nc12 (stereo not shown) [Compound 53],> 500
4,CC(C)c1cnn2c(NCc3ccc(OCCOCCOCCOCCOCCOCCOCCOCCOCCOCCOCCOCCOCCOCCOCCOCCNC(=O)CCNC(=O)c4nc(NC(=O)c5cc(NC(=O)CCNC(=O)c6nc(NC(=O)CCCNC(=O)c7cc(NC(=O)c8nc(NC(=O)CCNC(=O)c9cc(NC(=O)c%10nccn%10C)cn9C)cn8C)cn7C)cn6C)cn5C)cn4C)cc3-n3cccn3)nc(OC3CCCNC3)nc12 (stereo not shown) [Compound 54],> 500
5,Cn1cc(NC(=O)c2nc(NC(=O)CCNC(=O)c3cc(NC(=O)c4nccn4C)cn3C)cn2C)cc1C(=O)NCCCC(=O)Nc1cn(C)c(C(=O)NCCC(=O)Nc2cc(C(=O)Nc3cn(C)c(C(=O)NCCC(=O)NCCOCCOCCOCCOCCOCCNC(=O)c4ccc(-c5cnc(NCc6ccco6)n6cnnc56)cc4)n3)n(C)c2)n1 [Compound 60],100 to 500
6,Cc1nc(CCC(=O)NCCOCCOCCOCCOCCOCCNC(=O)CCNC(=O)c2nc(NC(=O)c3cc(NC(=O)CCNC(=O)c4nc(NC(=O)CCCNC(=O)c5cc(NC(=O)c6nc(NC(=O)CCNC(=O)c7cc(NC(=O)c8nccn8C)cn7C)cn6C)cn5C)cn4C)cn3C)cn2C)ccc1-c1cnc(NCc2c(F)ccc3c2CCO3)n2cnnc12 [Compound 62],> 500
7,Cc1nc(CCC(=O)NCCOCCOCCOCCOCCOCCOCCOCCOCCOCCOCCOCCOCCOCCOCCOCCNC(=O)CCNC(=O)c2nc(NC(=O)c3cc(NC(=O)CCNC(=O)c4nc(NC(=O)CCCNC(=O)c5cc(NC(=O)c6nc(NC(=O)CCNC(=O)c7cc(NC(=O)c8nccn8C)cn7C)cn6C)cn5C)cn4C)cn3C)cn2C)ccc1-c1cnc(NCc2c(F)ccc3c2CCO3)n2cnnc12 [Compound 63],> 500
